The values below come from ChEMBL document CHEMBL5096161, “Medulloblastoma drugs in development: Current leads, trials and drawbacks” (Eur J Med Chem, 2021).

Assay [1] has as its system D283 Med. Kind of assay: Anticancer activity against human D283 Med cells assessed as reduction in cell viability incubated for 72 hrs. Format: functional, cell-based.
The nature of assay [2]: Anticancer activity against human MED-MEB-8A cells assessed as reduction in cell viability incubated for 72 hrs. Format: functional, cell-based.
Assay [3] is described as follows: Antitumor activity against human D341 Med cells assessed as reduction in cell viability incubated for 24 hrs by Alamar blue assay. Type of assay: functional, cell-based.
Assay [4] in a line: Antitumor activity against human D384 Med cells assessed as reduction in cell viability incubated for 24 hrs by Alamar blue assay. Format: functional, cell-based. For orientation: Resazurin is reduced to fluorescent resorufin, in cell work by metabolically active cells.
The nature of assay [5]: Antitumor activity against human D425 Med cells assessed as reduction in cell viability incubated for 24 hrs by Alamar blue assay. Type of assay: functional, cell-based.
Assay [6] deals with ONS-76. Kind of assay: Antitumor activity against human ONS-76 cells xenografted in athymic nude mouse assessed as inhibition of tumor growth at 100 mg/kg, po QD for 9 days. To be noted: ONS-76, 216 h, time 9 day, read-out: TGI. Format: functional.
Assay [7] addresses Vascular endothelial growth factor receptor 2 (Homo sapiens, UniProt P35968). As to the kind of experiment: Inhibition of human VEGFR2 (789 to 1356 residues) assessed as reduction in autophosphorylation at Y1175 residues using poly (Glu4Tyr1) peptide and ATP as substrate incubated for 60 mins by ADP-Glo Kinase Assay.
Assay [8] has as its system Mus musculus. Kind of assay: Antitumor activity in Ptch+/- p53-/- mutant mouse medulloblastoma allograft model assessed as increase in survival rate at 50 mg/kg, po QD relative to control (Rvb=75 days). Format: functional.

For orientation: IC50 means the midpoint of a concentration-inhibition curve.

Chain of Vascular endothelial growth factor receptor 2 (P35968 whole entry, the tested form may be a part): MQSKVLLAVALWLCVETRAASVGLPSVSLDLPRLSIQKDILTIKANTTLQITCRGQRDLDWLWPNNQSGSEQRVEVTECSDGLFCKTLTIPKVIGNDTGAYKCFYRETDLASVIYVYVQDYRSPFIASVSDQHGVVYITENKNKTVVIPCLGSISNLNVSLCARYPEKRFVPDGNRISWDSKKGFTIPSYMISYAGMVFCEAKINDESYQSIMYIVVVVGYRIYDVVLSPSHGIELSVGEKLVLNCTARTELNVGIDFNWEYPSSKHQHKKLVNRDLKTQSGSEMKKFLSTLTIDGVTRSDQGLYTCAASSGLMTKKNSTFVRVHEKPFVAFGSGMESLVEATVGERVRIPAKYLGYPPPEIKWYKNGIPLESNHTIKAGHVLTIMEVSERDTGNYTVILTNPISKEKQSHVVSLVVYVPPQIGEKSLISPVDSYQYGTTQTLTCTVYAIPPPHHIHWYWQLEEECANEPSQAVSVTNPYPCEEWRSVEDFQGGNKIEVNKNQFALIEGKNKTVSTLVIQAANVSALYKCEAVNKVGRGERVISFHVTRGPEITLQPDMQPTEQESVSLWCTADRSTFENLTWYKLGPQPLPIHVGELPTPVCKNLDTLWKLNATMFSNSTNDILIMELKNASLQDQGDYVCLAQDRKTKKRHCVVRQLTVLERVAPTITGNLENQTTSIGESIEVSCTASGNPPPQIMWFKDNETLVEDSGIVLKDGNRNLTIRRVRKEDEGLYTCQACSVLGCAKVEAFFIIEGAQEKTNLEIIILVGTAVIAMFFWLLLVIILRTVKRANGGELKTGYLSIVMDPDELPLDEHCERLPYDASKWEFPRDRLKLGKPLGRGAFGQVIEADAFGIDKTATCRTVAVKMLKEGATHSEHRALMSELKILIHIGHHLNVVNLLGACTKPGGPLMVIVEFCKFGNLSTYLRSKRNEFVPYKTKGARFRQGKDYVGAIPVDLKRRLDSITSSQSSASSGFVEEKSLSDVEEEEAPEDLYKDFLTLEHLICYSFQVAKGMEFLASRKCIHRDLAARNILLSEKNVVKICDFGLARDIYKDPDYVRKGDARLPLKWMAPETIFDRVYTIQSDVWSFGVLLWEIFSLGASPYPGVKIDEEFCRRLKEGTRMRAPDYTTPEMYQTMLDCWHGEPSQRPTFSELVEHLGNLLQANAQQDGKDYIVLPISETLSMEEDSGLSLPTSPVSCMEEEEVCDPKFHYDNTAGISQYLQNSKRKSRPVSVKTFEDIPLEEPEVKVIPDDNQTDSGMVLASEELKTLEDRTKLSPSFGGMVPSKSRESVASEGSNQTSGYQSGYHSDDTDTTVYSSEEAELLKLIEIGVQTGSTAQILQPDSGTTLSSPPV

Turning to `C[C@H]1O[C@@H](O[C@H]2[C@@H](O)C[C@H](O[C@H]3[C@@H](O)C[C@H](O[C@H]4CC[C@@]5(C)[C@H](CC[C@@H]6[C@@H]5C[C@@H](O)[C@]5(C)[C@@H](C7=CC(=O)OC7)CC[C@]65O)C4)O[C@@H]3C)O[C@@H]2C)C[C@H](O)[C@@H]1O` [DIGOXIN], the IC50 amounted to 0.01 µM in assay [1] and 0.106 µM in assay [2].

`CCCCCCCCc1ccc(CCC(N)(CO)CO)cc1` [FINGOLIMOD]: the IC50 in assay [3] was found to be 5.5 µM; in assay [4] it was 7.3 µM; in assay [5] it was 7.5 µM.

`COc1cc2c(Oc3ccc(NC(=O)C4(C(=O)Nc5ccc(F)cc5)CC4)cc3F)ccnc2cc1OCCCN1CCOCC1` [FORETINIB]: the inhibition in vivo at 100 mg/kg in assay [6] was 50%.

Consider `COC(=O)Nc1nc2cc(C(=O)c3ccccc3)ccc2[nH]1` [MEBENDAZOLE], for which, in assay [7], the IC50 stood at 4.3 µM. In addition, the MST in assay [8] is 113 days.
